Results: ChEMBL document CHEMBL3988442, “University of Dundee, Small-Polar-MMV Screening Library” (2021)

What was measured:
Tryptophan--tRNA ligase = Tryptophan--tRNA ligase (Mycobacterium tuberculosis (strain ATCC 25618 / H37Rv), UniProt P9WFT3); experiment: Biochemical assay for Mt-TrpRS; format: functional
Plasmodium falciparum = experiment: Calibr Malaria Delayed Death Assay SOP; format: functional, organism-based; details: for IC50: Plasmodium falciparum
[1] = In vitro enzyme assay to detect hydrolysis of chlorophenol red-beta-D-[…] directly proportional to the number of Toxoplasma stably expressing beta-galactosidase; format: functional, organism-based, Toxoplasma gondii; details: for IC50: Toxoplasma gondii
Schistosoma mansoni = experiment: High throughput screening of compounds against Schistosoma mansoni motility; format: functional; set-up: dose or concentration left out as unconfirmed
ClpP1P2 = ClpP1P2 (Mycobacterium tuberculosis (strain ATCC 25618 / H37Rv), UniProt P9WPC3+P9WPC5); experiment: in vitro assay to detect presence of AMC directly proportional to the activity of ClpP1P2. GHDDI collaboration.; format: functional
Sequence of ClpP1P2 (P9WPC5 whole entry): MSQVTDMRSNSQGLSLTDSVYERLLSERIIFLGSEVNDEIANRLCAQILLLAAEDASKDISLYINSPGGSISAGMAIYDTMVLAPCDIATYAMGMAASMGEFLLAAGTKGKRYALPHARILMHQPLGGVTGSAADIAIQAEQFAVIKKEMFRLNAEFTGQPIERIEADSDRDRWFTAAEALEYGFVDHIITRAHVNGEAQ
Sequence of ClpP1P2 (P9WPC3 whole entry): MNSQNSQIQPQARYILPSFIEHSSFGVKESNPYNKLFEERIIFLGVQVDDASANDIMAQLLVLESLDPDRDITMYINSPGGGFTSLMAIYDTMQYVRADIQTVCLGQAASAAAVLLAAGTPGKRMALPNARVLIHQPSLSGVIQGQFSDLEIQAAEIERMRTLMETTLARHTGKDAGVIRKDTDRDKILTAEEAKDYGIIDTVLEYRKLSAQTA

[2] = microbe, parasite or virus in culture; details: Mycobacterium tuberculosis, 72 h, read-out: pIC50 (converted)
[3] = microbe, parasite or virus in culture; details: Mycobacterium tuberculosis, 96 h, read-out: pIC50 (converted)

Sequence of Tryptophan--tRNA ligase (P9WFT3 whole entry): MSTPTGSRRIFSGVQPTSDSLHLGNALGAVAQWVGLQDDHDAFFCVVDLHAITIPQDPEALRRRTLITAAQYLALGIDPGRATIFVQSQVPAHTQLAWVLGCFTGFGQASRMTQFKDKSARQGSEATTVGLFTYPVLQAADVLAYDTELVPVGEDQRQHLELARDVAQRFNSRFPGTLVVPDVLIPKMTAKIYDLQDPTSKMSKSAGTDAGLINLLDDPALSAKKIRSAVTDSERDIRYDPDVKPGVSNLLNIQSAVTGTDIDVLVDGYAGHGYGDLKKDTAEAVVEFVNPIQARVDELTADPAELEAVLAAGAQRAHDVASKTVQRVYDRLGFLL

SMILES	IC50 (Tryptophan--tRNA ligase) [µM]	IC50 [1] [µM]	further results
CC1CCN(CCCNC(=O)NC(C)c2nncn2C)CC1 (configuration not stated)	> 195	–	–
O=C(Cc1cccc(O)c1)N1CCCC(O)(CN2CCOCC2)CC1 (configuration not stated)	> 195	–	–
CC1CCN(CC(O)CNc2ccccn2)CC1 (configuration not stated)	> 195	–	–
Cc1cc(N2CCC(c3n[nH]c4nccnc34)CC2)ncn1	> 195	–	–
Cc1nc(C2CCN(Cc3ncc[nH]3)CC2)no1	> 195	–	–
CC(C)N1CCO[C@@H]2CN(C(=O)NCc3ccccc3)CC[C@@H]2C1	> 195	–	–
Cc1cnc(N)c(C(=O)C2CCN(C(=O)C3CCC3)CC2)c1	> 195	–	–
CCS(=O)(=O)NCCCNCc1c(C)nn(C)c1N(C)C	> 195	–	–
CO[C@H]1CN(Cc2ccc(F)c(F)c2)C[C@@]12CCCO2	> 195	–	–
CCC(=O)N1CCC2(C=C(C(=O)N3CCCC3)c3ccccc32)CC1	> 195	–	–
NC(=O)C1(Cc2ccc(-c3ccccc3)cc2)CCNC1 (configuration not stated)	> 195	–	–
O=C(c1cccnc1Oc1ccc(Cl)cc1)N1CC[C@@H](O)C1	> 195	–	–
O=S1(=O)CCC(N(Cc2nc3ccccc3o2)Cc2cccs2)C1 (configuration not stated)	> 195	–	–
Cc1ccc(N2CCc3ncnc(C)c3CC2)nn1	> 195	–	–
Nc1c(N2CCCC2)ncnc1N1CCOCC1	> 195	–	–
c1cnc(N2CCO[C@H]3CN(CC4CCOC4)C[C@H]32)cn1 (some centres not stated)	> 195	–	–
O=C(O)Cc1nc2nccc(-c3ccc(F)cc3)n2n1	> 195	–	–
O[C@@H]1CN(Cc2ccncc2)C[C@H]1Oc1ccccc1	> 195	–	–
Nc1nc2c(c(NC3CCCC3)n1)CCN(C(=O)C1CCOC1)CC2 (configuration not stated)	> 195	–	–
CCOc1ccc(N(C)Cc2nnc(C)o2)cc1	> 195	–	–
Cn1cc(C(=O)NCc2cncc3c2CCN(c2ccccn2)C3)cn1	> 195	–	–
CN(C)Cc1cncc2c1CCN(Cc1ccoc1)C2	> 195	–	–
CN1CCC(Cc2cc(Nc3ccccn3)ncn2)CC1	> 195	–	–
CCS(=O)(=O)N1CC(=O)N(Cc2ccccc2OC)CC(O)C1 (configuration not stated)	> 195	–	–
COCCN1CCN(Cc2cnc(C(C)C)nc2)CC1	> 195	–	–

SMILES	IC50 (Tryptophan--tRNA ligase) [µM]	IC50 [1] [µM]	further results
Cc1ccc(CNc2nc(O)cc(C3CC(=O)N(C)C3)n2)cc1 (configuration not stated)	> 195	–	–
Oc1cc(CC2COCCN(CC3(O)CCOCC3)C2)ncn1 (configuration not stated)	> 195	–	–
COC(=O)CCCNC(=O)Nc1ccccc1OC	> 195	–	–
Cc1nc(C2CCCN2C(=O)CC2CCCC2)ncc1C(N)=O (configuration not stated)	> 195	–	–
CCn1c2c(ccc1=O)CC(NCc1cnn(C)c1)CC2 (configuration not stated)	> 195	–	–
CS(=O)(=O)c1nccn1CCOc1ccccc1F	> 195	–	–
O=C(COC[C@]12COC[C@H]1CN(C1CCC1)C2)N1CCCC1	> 195	–	–
CN(C)c1ccc(CC2COCCN(Cc3nccn3C)C2)nn1 (configuration not stated)	> 195	–	–
CC(C)(Oc1ccc(C(N)=O)cc1)C(=O)N(CCC#N)CC1CCCO1 (configuration not stated)	> 195	–	–
c1cc(CN2C[C@H](OCC3CCOCC3)[C@H]3COC[C@H]32)co1	> 195	–	–
Cc1nccn1CC1CCCN(C(=O)c2cnn(C)c2)C1 (configuration not stated)	> 195	–	–
O=C(C1CC1)N1CCN2C[C@@H](CO)[C@H](c3ccccc3)[C@H]2C1	> 195	–	–
Cc1ccnc(C2CCN(C(=O)c3cnn(C)c3)C2)n1 (configuration not stated)	> 195	–	–
CC(C)Nc1cc(-c2c[nH]nc2C2CCN(C(=O)C3CCC3)C2)ccn1 (configuration not stated)	–	0.526	pIC50 (Plasmodium falciparum): 6.647; IC50 (Plasmodium falciparum): 0.209 µM
CC(=O)N1CCCC1c1cccc(Oc2ccccc2F)n1 (configuration not stated)	> 195	–	–
c1cncc(CN2CCc3ncnc(C4CC4)c3CC2)c1	> 195	–	–
CC(C)Nc1cc(-c2c[nH]nc2C2CCN(C(=O)C3CC3)C2)ccn1 (configuration not stated)	–	0.423	pIC50 (Plasmodium falciparum): 6.541; IC50 (Plasmodium falciparum): 0.269 µM
CC(C)(C)c1cn2c(n1)C(CNCc1ccccn1)CCC2 (configuration not stated)	–	2.04	pIC50 (Plasmodium falciparum): 6.014; IC50 (Plasmodium falciparum): 0.881 µM
O=S(=O)(NCC1(O)CCOc2ccccc21)c1ccc(Br)s1 (configuration not stated)	–	7.49	Percent Effect (Schistosoma mansoni): -11.19%
CCOC(=O)C1(Cc2ccccc2-c2ccccc2OC)CCNCC1.Cl	–	13.2	pIC50 (Plasmodium falciparum): 6.391; IC50 (Plasmodium falciparum): 0.369 µM
CNc1oc(-c2ccc(S(=O)(=O)N(C)C)o2)nc1C#N	–	> 50.1	IC50 (ClpP1P2): > 100 µM
COc1ccc(S(=O)(=O)N(C)C)cc1NCC1CC1	–	> 50.1	IC50 [2]: 299 µM; IC50 [3]: > 501 µM
Cc1cccc(OCCc2noc(C3CNC3)n2)c1	–	8.49	IC50 [2]: 89.2 µM; IC50 [3]: 163 µM
CCOC(=O)C(O)c1cc(Br)c2c(c1)OCO2 (configuration not stated)	–	> 50.1	IC50 [2]: 223 µM; IC50 [3]: > 501 µM
CCCNc1cc(-c2c[nH]nc2C2CCN(C(=O)C3CCC3)C2)ccn1 (configuration not stated)	–	0.368	pIC50 (Plasmodium falciparum): 6.573; IC50 (Plasmodium falciparum): 0.237 µM

SMILES	IC50 (Tryptophan--tRNA ligase) [µM]	IC50 [1] [µM]	further results
Cc1cc(C2CCCN(CC(=O)Nc3nc4c(s3)CCC4)C2)n[nH]1 (configuration not stated)	–	0.781	pIC50 (Plasmodium falciparum): 6.771; IC50 (Plasmodium falciparum): 0.185 µM; IC50 [2]: 37.8 µM; IC50 [3]: 47.2 µM
COc1cccc(N2CCNCC2C)c1 (configuration not stated)	–	> 50.1	IC50 [2]: > 501 µM; IC50 [3]: > 501 µM
c1ccc(C2CNCCCO2)cc1 (configuration not stated)	–	> 50.1	IC50 [2]: 166 µM; IC50 [3]: 306 µM
CCCn1ncc(-c2ccnc(NC3CC(C)(C)NC(C)(C)C3)n2)c1C	–	9.87	pIC50 (Plasmodium falciparum): 6.559; IC50 (Plasmodium falciparum): 0.23 µM
CC(C)CNc1cc(-c2c[nH]nc2C2CCN(C(=O)C3CC3)C2)ccn1 (configuration not stated)	–	0.274	pIC50 (Plasmodium falciparum): 6.615; IC50 (Plasmodium falciparum): 0.233 µM
COc1ccc(-c2ccccc2CCN)c(OC)c1OC	–	3.52	pIC50 (Plasmodium falciparum): 6.053; IC50 (Plasmodium falciparum): 0.762 µM; IC50 [2]: 43.4 µM; IC50 [3]: 25.1 µM
Cc1cc(NC(=O)C(C)C)n(-c2nc(C)c(C)c(=O)[nH]2)n1	–	1.51	IC50 [2]: 4.11 µM; pIC50 [1]: 5.713; IC50 [3]: 9.46 µM
CCCS(=O)(=O)NCC(O)C1CCCC1 (configuration not stated)	–	> 50.1	IC50 [2]: 294 µM; IC50 [3]: 268 µM
C=C/C=c1\c(=C/C)oc2c(NCc3ccccc3)nc(C)nc12	–	37.2	IC50 [2]: 20.6 µM; IC50 [3]: 12.1 µM
NCCNC(=O)c1ccc(-c2ccc(Cl)cc2)s1	–	> 25.1	IC50 [2]: 67.3 µM; IC50 [3]: 103 µM
COCCNc1nnc(SCc2ccc(Br)cn2)s1	–	> 50.1	IC50 [2]: 276 µM; IC50 [3]: > 501 µM
Cc1ccc(C(CCNCCCN(C)C)C2CCOC(C)(C)C2)cc1.O=C(O)C(=O)O (configuration not stated)	–	5.38	pIC50 (Plasmodium falciparum): 6.22; IC50 (Plasmodium falciparum): 0.659 µM; pIC50 [1]: 5.301
Fc1cccc(-c2cccc(N3CCC(NC4CCCOC4)CC3)c2)c1 (configuration not stated)	–	26.2	IC50 [2]: 27.4 µM; IC50 [3]: 30.8 µM
Cc1ccc(F)cc1S(=O)(=O)N1C[C@H](C2CC2)[C@@H](N)C1	–	> 50.1	IC50 [2]: 259 µM; IC50 [3]: > 501 µM
CCNCc1ccc(OCc2ccc3c(c2)OCCO3)cc1.Cl	–	8.2	pIC50 [1]: 4.872; IC50 (ClpP1P2): > 100 µM
CC(C)Sc1ccccc1NS(=O)(=O)N(C)C	–	> 50.1	IC50 [2]: 173 µM; IC50 [3]: 252 µM
Cc1cc(C(=O)N2CCN(c3nc4c(C(C)C)cccc4s3)CC2)on1	–	> 25.1	IC50 [2]: 21.3 µM; IC50 [3]: 38.5 µM
Cn1nc2n(c1=O)CCN(Cc1ccc(Br)s1)CC2	–	> 50.1	IC50 [2]: 139 µM; IC50 [3]: > 501 µM
OCCNCCNCc1ccc(-c2cccc(Cl)c2)o1	–	> 25.1	IC50 [2]: 84.4 µM; IC50 [3]: 253 µM
O=C(CN1CCCC(c2ccn[nH]2)C1)Nc1nc2c(s1)CCC2 (configuration not stated)	–	0.766	pIC50 (Plasmodium falciparum): 6.713; IC50 (Plasmodium falciparum): 0.216 µM
CCn1nc(C)c2nc(C(C)C)nc(NCC(C)C)c21	–	25.4	IC50 [2]: 47.1 µM; IC50 [3]: 49.2 µM
Nc1nnc(SCc2ccc(Cl)s2)[nH]1	–	> 50.1	IC50 [2]: 307 µM; IC50 [3]: 313 µM
CC(C)c1ccc(C(CN)N2CCc3sccc3C2)cc1 (configuration not stated)	–	13.4	IC50 [2]: 20.4 µM; pIC50 [1]: 5.076; IC50 [3]: 24.8 µM
C(Cc1noc(C2CNC2)n1)OCC1CC1	–	24.8	IC50 [2]: 136 µM; IC50 [3]: 352 µM
